Measured values taken from PubChem BioAssay AID256 (DTP/NCI, 2004).
Values joined by “and” are separate entries in the source; they are usually repeats but may differ in a detail not shown here. Equal values may be shown once. Inconclusive results and toxic doses are left out. How the source made its calls: active means survival T/C of 150% or more; inactive means T/C below 125% in these data.

Test system: CD2F1 mice, L1210 leukemia ip, survival T/C
Assay: NCI In Vivo Anticancer Drug Screen. Data for tumor model L1210 Leukemia (intraperitoneal) in CD2F1 (CDF1) mice
Details: higher = longer survival
How it was run: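 Transplantable tumor in mice; compound-treated vs vehicle-treated groups. Read-out = treated/control ratio of the measured endpoint.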

[1] = endpoint: mean survival time, dose: 12.5 mg/kg/injection, schedule: Q04DX002 (ip), vehicle: saline
[2] = endpoint: mean survival time, dose: 25.0 mg/kg/injection, schedule: Q04DX002 (ip), vehicle: saline
[3] = endpoint: mean survival time, dose: 50.0 mg/kg/injection, schedule: Q04DX002 (ip), vehicle: saline
[4] = endpoint: mean survival time, dose: 25.0 mg/kg/injection, schedule: Q01DX009 (ip), vehicle: saline with Tween-80
[5] = endpoint: mean survival time, dose: 50.0 mg/kg/injection, schedule: Q01DX009 (ip), vehicle: saline with Tween-80
[6] = endpoint: mean survival time, dose: 75.0 mg/kg/injection, schedule: Q01DX001 (ip), vehicle: saline
[7] = endpoint: mean survival time, dose: 100.0 mg/kg/injection, schedule: Q04DX003 (ip), vehicle: saline with Tween-80
[8] = endpoint: mean survival time, dose: 200.0 mg/kg/injection, schedule: Q04DX003 (ip), vehicle: saline with Tween-80
[9] = endpoint: mean survival time, dose: 400.0 mg/kg/injection, schedule: Q04DX003 (ip), vehicle: saline with Tween-80
[10] = endpoint: mean survival time, dose: 100.0 mg/kg/injection, schedule: Q01DX009 (ip), vehicle: saline with Tween-80
[11] = endpoint: mean survival time, dose: 200.0 mg/kg/injection, schedule: Q01DX009 (ip), vehicle: saline with Tween-80
[12] = endpoint: mean survival time, dose: 50.0 mg/kg/injection, schedule: Q04DX003 (ip), vehicle: saline with Tween-80
[13] = endpoint: mean survival time, dose: 100.0 mg/kg/injection, schedule: Q01DX001 (ip), vehicle: saline with Tween-80
[14] = endpoint: mean survival time, dose: 100.0 mg/kg/injection, schedule: Q04DX002 (ip), vehicle: saline with Tween-80
[15] = endpoint: mean survival time, dose: 200.0 mg/kg/injection, schedule: Q01DX001 (ip), vehicle: saline with Tween-80
[16] = endpoint: mean survival time, dose: 200.0 mg/kg/injection, schedule: Q04DX002 (ip), vehicle: saline with Tween-80
[17] = endpoint: mean survival time, dose: 400.0 mg/kg/injection, schedule: Q01DX001 (ip), vehicle: saline with Tween-80
[18] = endpoint: mean survival time, dose: 400.0 mg/kg/injection, schedule: Q04DX002 (ip), vehicle: saline with Tween-80

Measured: T/C

NC(CS)=NCCc1nc2ccccc2[nH]1
inactive: endpoint: mean survival time, dose: 6.25 mg/kg/injection, schedule: Q04DX002 (ip), vehicle: saline 96 % of control | [1] 93 % of control | [2] 96 % of control and 104 % of control | [3] 106 % of control

CC1(C)C2CCC1(CS(=O)(=O)O)C(=O)C2Br.[Ag] (stereo not drawn)
inactive: endpoint: mean survival time, dose: 100.0 mg/kg/injection, schedule: Q04DX003 (ip), vehicle: acetone 96 % of control

Cc1cc(N/N=C/c2ccccn2)nc2ccccc12
inactive: endpoint: median survival time, dose: 6.25 mg/kg/injection, schedule: Q01DX009 (ip), vehicle: Klucel (hydroxypropylcellulose) (HPC) 102 % of control | endpoint: median survival time, dose: 12.5 mg/kg/injection, schedule: Q01DX009 (ip), vehicle: Klucel (hydroxypropylcellulose) (HPC) 100 % of control | endpoint: median survival time, dose: 25.0 mg/kg/injection, schedule: Q01DX009 (ip), vehicle: Klucel (hydroxypropylcellulose) (HPC) 97 % of control | endpoint: median survival time, dose: 50.0 mg/kg/injection, schedule: Q01DX009 (ip), vehicle: Klucel (hydroxypropylcellulose) (HPC) 110 % of control

c1ccc(COC2CN3CCC2CC3)cc1 (stereo not drawn)
inactive: [4] 100 % of control | [5] 100 % of control

O=[N+]([O-])O.[Zn+2].c1ccncc1
inactive: [6] 108 % of control

CN(C)CC(C)(C)C(=O)c1ccc(F)cc1
inactive: [1] 104 % of control | [2] 101 % of control | [3] 96 % of control

O=c1ccnc[nH]1
inactive: endpoint: mean survival time, dose: 100.0 mg/kg/injection, schedule: Q04DX003 (ip), vehicle: saline sonified 93 % of control | endpoint: mean survival time, dose: 200.0 mg/kg/injection, schedule: Q04DX003 (ip), vehicle: saline sonified 104 % of control | endpoint: mean survival time, dose: 400.0 mg/kg/injection, schedule: Q04DX003 (ip), vehicle: saline sonified 104 % of control

O=C(O)C1CC[N-]CC1.O=C(O)C1CC[N-]CC1.O=C(O)C1CC[N-]CC1.O=C(O)C1CC[N-]CC1.[Cl][Rh][Cl]
inactive: endpoint: mean survival time, dose: 66.0 mg/kg/injection, schedule: Q01DX009 (ip), vehicle: saline 112 % of control | endpoint: mean survival time, dose: 100.0 mg/kg/injection, schedule: Q01DX009 (ip), vehicle: saline 110 % of control

O=C(O)CC(NCc1ccccc1)C(=O)O (stereo not drawn)
inactive: [7] 103 % of control | [8] 100 % of control | [9] 97 % of control

O=C(NCCNC(=O)c1ccccc1)c1ccccc1
inactive: endpoint: mean survival time, dose: 6.25 mg/kg/injection, schedule: Q04DX002 (ip), vehicle: saline with Tween-80 97 % of control | endpoint: mean survival time, dose: 12.5 mg/kg/injection, schedule: Q04DX002 (ip), vehicle: saline with Tween-80 93 % of control | endpoint: mean survival time, dose: 25.0 mg/kg/injection, schedule: Q04DX002 (ip), vehicle: saline with Tween-80 93 % of control | endpoint: mean survival time, dose: 50.0 mg/kg/injection, schedule: Q04DX002 (ip), vehicle: saline with Tween-80 89 % of control | endpoint: median survival time, dose: 50.0 mg/kg/injection, schedule: Q04DX002 (ip), vehicle: saline with Tween-80 94 % of control

CCC(C)C(CO)c1ccccc1 (stereo not drawn)
inactive: [5] 98 % of control | [10] 88 % of control

CCCCC(CC)C(=O)[O][Pb]([CH3])([CH3])[CH3] (stereo not drawn)
inactive: endpoint: mean survival time, dose: 5.0 mg/kg/injection, schedule: Q04DX003 (ip), vehicle: saline with Tween-80 97 % of control | endpoint: mean survival time, dose: 10.0 mg/kg/injection, schedule: Q04DX003 (ip), vehicle: saline with Tween-80 98 % of control

CCOC(=O)c1ccnc2ccc(O)cc12
inactive: [10] 104 % of control | [11] 93 % of control | endpoint: mean survival time, dose: 400.0 mg/kg/injection, schedule: Q01DX009 (ip), vehicle: saline with Tween-80 95 % of control

CC(=O)NC/C(Cl)=C/Cl
inactive: [7] 99 % of control | [8] 96 % of control | [9] 88 % of control

CCOC(=O)c1ccc(NC(=O)Nc2ccc(N(C)C(C)=O)cc2)cc1
inactive: endpoint: mean survival time, dose: 25.0 mg/kg/injection, schedule: Q04DX003 (ip), vehicle: saline with Tween-80 98 % of control | [5] 87 % of control | [12] 96 % of control | [13] 100 % of control | [10] 87 % of control and 101 % of control | [14] 90 % of control and 97 % of control | [7] 94 % of control and 109 % of control | [15] 97 % of control | [11] 90 % of control and 91 % of control | [16] 87 % of control and 91 % of control | [8] 104 % of control | [17] 102 % of control | [18] 88 % of control and 94 % of control

Cc1cc(C)c(O)c(C)c1
inactive: endpoint: mean survival time, dose: 50.0 mg/kg/injection, schedule: Q01DX009 (ip), vehicle: Klucel (hydroxypropylcellulose) (HPC) 96 % of control | endpoint: mean survival time, dose: 100.0 mg/kg/injection, schedule: Q01DX009 (ip), vehicle: Klucel (hydroxypropylcellulose) (HPC) 93 % of control | endpoint: mean survival time, dose: 200.0 mg/kg/injection, schedule: Q01DX009 (ip), vehicle: Klucel (hydroxypropylcellulose) (HPC) 93 % of control

c1ccc(COCc2ccccc2Cn2ccnc2)cc1
inactive: endpoint: mean survival time, dose: 10.0 mg/kg/injection, schedule: Q04DX003 (ip), vehicle: saline 120 % of control | endpoint: mean survival time, dose: 20.0 mg/kg/injection, schedule: Q04DX003 (ip), vehicle: saline 101 % of control | endpoint: mean survival time, dose: 40.0 mg/kg/injection, schedule: Q04DX003 (ip), vehicle: saline 95 % of control

N=C(N)N
inactive: [5] 96 % of control | [10] 98 % of control | [7] 96 % of control | [11] 96 % of control | [8] 94 % of control

CC(C)CC(NC(=O)c1ccccc1)C(N)=O (stereo not drawn)
inactive: [7] 101 % of control | [8] 97 % of control | [9] 92 % of control

CCCCCCCCCCCCCCCC[n+]1cccc(C(=O)NCO)c1
inactive: endpoint: mean survival time, dose: 6.25 mg/kg/injection, schedule: Q01DX009 (ip), vehicle: saline with Tween-80 102 % of control | endpoint: mean survival time, dose: 12.5 mg/kg/injection, schedule: Q01DX009 (ip), vehicle: saline with Tween-80 95 % of control | [4] 95 % of control | [12] 103 % of control | [8] 103 % of control

CCCCNc1ncnc2c1cnn2C
inactive: endpoint: mean survival time, dose: 4.0 mg/kg/injection, schedule: Q01DX Z (ip), vehicle: saline 97 % of control | endpoint: mean survival time, dose: 8.0 mg/kg/injection, schedule: Q01DX Z (ip), vehicle: saline 96 % of control | endpoint: mean survival time, dose: 12.5 mg/kg/injection, schedule: Q01DX005 (ip), vehicle: saline with Tween-80 94 % of control | endpoint: mean survival time, dose: 16.0 mg/kg/injection, schedule: Q01DX Z (ip), vehicle: saline 100 % of control | endpoint: mean survival time, dose: 25.0 mg/kg/injection, schedule: Q01DX005 (ip), vehicle: saline with Tween-80 100 % of control | endpoint: mean survival time, dose: 31.0 mg/kg/injection, schedule: Q01DX Z (ip), vehicle: saline 103 % of control | endpoint: mean survival time, dose: 50.0 mg/kg/injection, schedule: Q01DX005 (ip), vehicle: saline with Tween-80 104 % of control | endpoint: mean survival time, dose: 100.0 mg/kg/injection, schedule: Q01DX005 (ip), vehicle: saline with Tween-80 98 % of control | endpoint: mean survival time, dose: 200.0 mg/kg/injection, schedule: Q01DX005 (ip), vehicle: saline with Tween-80 100 % of control | endpoint: median survival time, dose: 31.3 mg/kg/injection, schedule: Q01DX009 (ip), vehicle: saline 100 % of control | endpoint: median survival time, dose: 62.5 mg/kg/injection, schedule: Q01DX009 (ip), vehicle: saline 100 % of control | endpoint: median survival time, dose: 125.0 mg/kg/injection, schedule: Q01DX009 (ip), vehicle: saline 105 % of control

COc1ccc2c(O)c(C)c(=O)n(C)c2c1
inactive: [14] 96 % of control | [16] 96 % of control | [18] 93 % of control

N/N=C1\CC2C3CC4(OCCO4)C4C3CC2C14 (stereo not drawn)
inactive: [6] 102 % of control | endpoint: mean survival time, dose: 150.0 mg/kg/injection, schedule: Q01DX001 (ip), vehicle: saline 103 % of control

Cn1c(=O)c2c(nc(NCCOC(=S)S)n2C)n(C)c1=O
inactive: endpoint: mean survival time, dose: 12.5 mg/kg/injection, schedule: Q01DX005 (ip), vehicle: distilled water + Tween-80 94 % of control | endpoint: mean survival time, dose: 25.0 mg/kg/injection, schedule: Q01DX005 (ip), vehicle: distilled water + Tween-80 91 % of control | endpoint: mean survival time, dose: 50.0 mg/kg/injection, schedule: Q01DX005 (ip), vehicle: distilled water + Tween-80 100 % of control

COc1ccc(C(O)(c2ccccc2)C(OC(=O)c2cc([N+](=O)[O-])cc([N+](=O)[O-])c2)c2ccccc2)cc1 (stereo not drawn)
inactive: [13] 87 % of control | [15] 94 % of control | [17] 91 % of control
